Test results published in PubChem BioAssay AID180 (DTP/NCI, 2004).
Values joined by “and” are separate entries in the source; they are usually repeats but may differ in a detail not shown here. Equal values may be shown once.

Test system: BDF1 mice, Adenocarcinoma 755 s.c., tumor weight T/C
Test: NCI In Vivo Anticancer Drug Screen. Data for tumor model Adenocarcinoma 755 (subcutaneous) in B6D2F1 (BDF1) mice
Conditions: endpoint: mean tumor weight, higher = larger tumour
Outline: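 Transplantable tumor implanted; mice dosed with compound or vehicle; survival or tumor size recorded; ratio of treated to vehicle control reported.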

[1] = dose: 250.0 mg/kg/injection, schedule: Q01DX011 (ip), vehicle: carboxymethylcellulose (CMC)
[2] = dose: 31.0 mg/kg/injection, schedule: Q01DX011 (ip), vehicle: other
[3] = dose: 125.0 mg/kg/injection, schedule: Q01DX011 (ip), vehicle: carboxymethylcellulose (CMC)
[4] = dose: 50.0 mg/kg/injection, schedule: Q01DX011 (ip), vehicle: carboxymethylcellulose (CMC)

`Cn1c(N)c(N=O)c(=O)n(C)c1=O` was tested, and the T/C (dose: 175.0 mg/kg/injection, schedule: Q01DX011 (oral), vehicle: other) was 99 % of control, the T/C [1] was 81 % of control and the T/C (dose: 350.0 mg/kg/injection, schedule: Q01DX011 (ip), vehicle: carboxymethylcellulose (CMC)) was 28 % of control. The T/C (dose: 350.0 mg/kg/injection, schedule: Q01DX011 (oral), vehicle: other) was 80 % of control, the T/C (dose: 1400.0 mg/kg/injection, schedule: Q01DX011 (oral), vehicle: methylcellulose (MC)) was 105 % of control and the T/C (dose: 2000.0 mg/kg/injection, schedule: Q01DX011 (oral), vehicle: other) was 74 % of control. For the same compound, the T/C (dose: 2800.0 mg/kg/injection, schedule: Q01DX011 (oral), vehicle: other) was 118 % of control.
For `Ic1ncnc2c1ncn2C1CCCCO1` (stereo not drawn), the T/C (dose: 5.0 mg/kg/injection, schedule: Q01DX011 (ip), vehicle: other) was 123 % of control, the T/C (dose: 10.0 mg/kg/injection, schedule: Q01DX011 (ip), vehicle: other) was 47 % of control and the T/C (dose: 15.0 mg/kg/injection, schedule: Q01DX011 (ip), vehicle: other) was 94 % of control. The T/C (dose: 20.0 mg/kg/injection, schedule: Q01DX011 (ip), vehicle: other) was 68 % of control and 70 % of control, the T/C (dose: 30.0 mg/kg/injection, schedule: Q01DX011 (ip), vehicle: other) was 100 % of control and 76 % of control and the T/C [2] was 14 % of control. For the same compound, the T/C (dose: 62.0 mg/kg/injection, schedule: Q01DX011 (ip), vehicle: other) was 14 % of control.
For `S=c1nc[nH]c2c1ncn2C1CCCCCC1`, the T/C [3] was 65 % of control, the T/C [1] was 88 % of control and the T/C (dose: 500.0 mg/kg/injection, schedule: Q01DX011 (ip), vehicle: carboxymethylcellulose (CMC)) was 87 % of control.
`O=C1[O][Sb]23[O]C(=O)C([O]2)C(O)C(O)C2[O][Sb]4([O]C(=O)C([O]4)C(O)C(O)C1[O]3)[O]C2=O` (stereo not drawn) was tested, and the T/C (dose: 80.0 mg/kg/injection, schedule: Q01DX011 (ip), vehicle: methylcellulose (MC)) was 50 % of control and 55 % of control.
For `CC(=O)OCC(=O)C1(O)C(C)CC2C3C=C(C)C4=Cc5c(cnn5-c5ccccc5)CC4(C)C3C(O)CC21C` (stereo not drawn), the T/C (dose: 0.01 mg/kg/injection, schedule: Q01DX011 (sc), vehicle: steriod suspending solution) was 74 % of control, the T/C (dose: 0.02 mg/kg/injection, schedule: Q01DX011 (sc), vehicle: steriod suspending solution) was 59 % of control and the T/C (dose: 0.05 mg/kg/injection, schedule: Q01DX011 (sc), vehicle: steriod suspending solution) was 46 % of control and 48 % of control. The T/C (dose: 0.1 mg/kg/injection, schedule: Q01DX011 (sc), vehicle: steriod suspending solution) was 19 % of control and 23 % of control, the T/C (dose: 0.2 mg/kg/injection, schedule: Q01DX011 (sc), vehicle: steriod suspending solution) was 9 % of control and 13 % of control and the T/C (dose: 1.0 mg/kg/injection, schedule: Q01DX011 (sc), vehicle: steriod suspending solution) was 14 % of control. The T/C (dose: 5.0 micrograms/kg/injection, schedule: Q01DX011 (sc), vehicle: steriod suspending solution) was 54 % of control, the T/C (dose: 10.0 micrograms/kg/injection, schedule: Q01DX011 (sc), vehicle: steriod suspending solution) was 106 % of control and the T/C (dose: 25.0 micrograms/kg/injection, schedule: Q01DX011 (sc), vehicle: steriod suspending solution) was 46 % of control.
`OCC1OC(n2cnc3c(Cl)ncnc32)C(O)C1O` (stereo not drawn) was tested, and the T/C (dose: 62.5 mg/kg/injection, schedule: Q01DX011 (ip), vehicle: carboxymethylcellulose (CMC)) was 153 % of control, the T/C (dose: 100.0 mg/kg/injection, schedule: Q01DX011 (ip), vehicle: methylcellulose (MC)) was 72 % of control and the T/C [3] was 63 % of control. The T/C (dose: 200.0 mg/kg/injection, schedule: Q01DX011 (ip), vehicle: methylcellulose (MC)) was 78 % of control, the T/C [1] was 55 % of control and the T/C (dose: 300.0 mg/kg/injection, schedule: Q01DX011 (ip), vehicle: methylcellulose (MC)) was 90 % of control. The T/C (dose: 400.0 mg/kg/injection, schedule: Q01DX011 (ip), vehicle: methylcellulose (MC)) was 63 % of control, the T/C (dose: 500.0 mg/kg/injection, schedule: Q01DX011 (ip), vehicle: methylcellulose (MC)) was 11 % of control and the T/C (dose: 750.0 mg/kg/injection, schedule: Q01DX011 (ip), vehicle: methylcellulose (MC)) was 4 % of control. For the same compound, the T/C (dose: 1000.0 mg/kg/injection, schedule: Q01DX011 (ip), vehicle: methylcellulose (MC)) was 15 % of control.
`Ic1ncnc2c1ncn2C1CCCO1` (stereo not drawn) was tested, and the T/C [4] was 94 % of control and the T/C (dose: 100.0 mg/kg/injection, schedule: Q01DX011 (ip), vehicle: carboxymethylcellulose (CMC)) was 84 % of control.
For `CC(C)CSc1ncnc2nc[nH]c12`, the T/C (dose: 6.0 mg/kg/injection, schedule: Q01DX011 (ip), vehicle: other) was 45 % of control, the T/C (dose: 11.0 mg/kg/injection, schedule: Q01DX011 (ip), vehicle: other) was 19 % of control and the T/C (dose: 22.0 mg/kg/injection, schedule: Q01DX011 (ip), vehicle: other) was 5 % of control. The T/C [2] was 1 % of control and the T/C (dose: 45.0 mg/kg/injection, schedule: Q01DX011 (ip), vehicle: other) was 7 % of control.
`C=CC(O)CN1CC1=C` (stereo not drawn) (tested in a mixture with another compound) was tested, and the T/C (dose: 1.9 mg/kg/injection, schedule: Q01DX011 (ip), vehicle: methylcellulose (MC)) was 95 % of control, the T/C (dose: 3.75 mg/kg/injection, schedule: Q01DX011 (ip), vehicle: methylcellulose (MC)) was 121 % of control and the T/C (dose: 7.5 mg/kg/injection, schedule: Q01DX011 (ip), vehicle: methylcellulose (MC)) was 106 % of control. For the same compound, the T/C (dose: 15.0 mg/kg/injection, schedule: Q01DX011 (ip), vehicle: methylcellulose (MC)) was 49 % of control.
For `O=[N+]([O-])c1ccc2ncccc2c1`, the T/C (dose: 31.2 mg/kg/injection, schedule: Q01DX011 (ip), vehicle: other) was 83 % of control and the T/C (dose: 62.5 mg/kg/injection, schedule: Q01DX011 (ip), vehicle: other) was 52 % of control.
For `c1nc(SC2CCCC2)c2[nH]cnc2n1`, the T/C (dose: 0.62 mg/kg/injection, schedule: Q01DX011 (ip), vehicle: carboxymethylcellulose (CMC)) was 76 % of control, the T/C (dose: 0.62 mg/kg/injection, schedule: Q01DX011 (oral), vehicle: carboxymethylcellulose (CMC)) was 93 % of control and the T/C (dose: 1.25 mg/kg/injection, schedule: Q01DX011 (ip), vehicle: carboxymethylcellulose (CMC)) was 66 % of control. For the same compound, the T/C (dose: 2.5 mg/kg/injection, schedule: Q01DX011 (ip), vehicle: carboxymethylcellulose (CMC)) was 45 % of control, the T/C (dose: 2.5 mg/kg/injection, schedule: Q01DX011 (oral), vehicle: carboxymethylcellulose (CMC)) was 62 % of control and the T/C (dose: 5.0 mg/kg/injection, schedule: Q01DX011 (oral), vehicle: carboxymethylcellulose (CMC)) was 6 % of control. For the same compound, the T/C (dose: 5.2 mg/kg/injection, schedule: Q01DX011 (ip), vehicle: carboxymethylcellulose (CMC)) was 59 % of control, the T/C (dose: 10.0 mg/kg/injection, schedule: Q01DX011 (ip), vehicle: carboxymethylcellulose (CMC)) was 6 % of control and the T/C (dose: 10.0 mg/kg/injection, schedule: Q01DX011 (oral), vehicle: carboxymethylcellulose (CMC)) was 3 % of control. The T/C (dose: 10.5 mg/kg/injection, schedule: Q01DX011 (ip), vehicle: carboxymethylcellulose (CMC)) was 20 % of control, the T/C (dose: 21.0 mg/kg/injection, schedule: Q01DX011 (ip), vehicle: carboxymethylcellulose (CMC)) was 6 % of control and 17 % of control and the T/C (dose: 21.0 mg/kg/injection, schedule: Q01DX011 (oral), vehicle: carboxymethylcellulose (CMC)) was 7 % of control. For the same compound, the T/C (dose: 42.0 mg/kg/injection, schedule: Q01DX011 (ip), vehicle: carboxymethylcellulose (CMC)) was 4 % of control, the T/C (dose: 42.5 mg/kg/injection, schedule: Q01DX011 (ip), vehicle: carboxymethylcellulose (CMC)) was 1 % of control and the T/C (dose: 84.0 mg/kg/injection, schedule: Q01DX011 (oral), vehicle: carboxymethylcellulose (CMC)) was 5 % of control. The T/C (dose: 85.0 mg/kg/injection, schedule: Q01DX011 (ip), vehicle: carboxymethylcellulose (CMC)) was 1 % of control and 2 % of control, the T/C (dose: 85.0 mg/kg/injection, schedule: Q01DX011 (oral), vehicle: carboxymethylcellulose (CMC)) was 2 % of control and the T/C (dose: 87.0 mg/kg/injection, schedule: Q01DX001 (ip), vehicle: carboxymethylcellulose (CMC)) was 43 % of control. For the same compound, the T/C (dose: 174.0 mg/kg/injection, schedule: Q01DX001 (ip), vehicle: carboxymethylcellulose (CMC)) was 44 % of control, the T/C (dose: 347.0 mg/kg/injection, schedule: Q01DX001 (ip), vehicle: carboxymethylcellulose (CMC)) was 25 % of control and the T/C (dose: 694.0 mg/kg/injection, schedule: Q01DX001 (ip), vehicle: carboxymethylcellulose (CMC)) was 24 % of control.
With `COc1cc(C(=O)[O][Hg][CH2]C2COC([CH2][Hg][O]C(=O)c3cc(OC)c(OC)c(OC)c3)CO2)cc(OC)c1OC` (stereo not drawn) the T/C (dose: 25.0 mg/kg/injection, schedule: Q01DX011 (ip), vehicle: carboxymethylcellulose (CMC)) was 61 % of control.
For `c1nc(N2CC2)c2ncn(C3CCCCC3)c2n1`, the T/C (dose: 12.5 mg/kg/injection, schedule: Q01DX011 (ip), vehicle: carboxymethylcellulose (CMC)) was 36 % of control and the T/C [4] was 94 % of control.
`CO[C@@H]([CH2][Hg][S]C#N)[C@@H]([CH2][Hg][S]C#N)OC` was tested, and the T/C (dose: 9.5 mg/kg/injection, schedule: Q01DX011 (ip), vehicle: carboxymethylcellulose (CMC)) was 56 % of control and the T/C (dose: 18.75 mg/kg/injection, schedule: Q01DX011 (ip), vehicle: carboxymethylcellulose (CMC)) was 57 % of control.
For `O=C(CCBr)NCNC(=O)CCBr`, the T/C (dose: 28.0 mg/kg/injection, schedule: Q01DX011 (ip), vehicle: methylcellulose (MC)) was 56 % of control and the T/C (dose: 57.0 mg/kg/injection, schedule: Q01DX011 (ip), vehicle: methylcellulose (MC)) was 28 % of control.
